Data from PMC8078842 (PLoS Neglected Tropical Diseases, 2021).
Values joined by “and” are separate entries in the source; they are usually repeats but may differ in a detail not shown here. Equal values may be shown once.

Test: In situ brain/choroid plexus perfusion (10 or 30 minutes) with capillary depletion
Settings: for RTISSUE/PLASMA% (mean±SEM) Caudate putamen / RTISSUE/PLASMA% (mean±SEM) Cerebellum / RTISSUE/PLASMA% (mean±SEM) Choroid plexus / RTISSUE/PLASMA% (mean±SEM) Corpus callosum / RTISSUE/PLASMA% (mean±SEM) Frontal cortex / RTISSUE/PLASMA% (mean±SEM) Hippocampus / RTISSUE/PLASMA% (mean±SEM) Homogenate / RTISSUE/PLASMA% (mean±SEM) Hypothalamus / RTISSUE/PLASMA% (mean±SEM) Occipital cortex / RTISSUE/PLASMA% (mean±SEM) Pellet / RTISSUE/PLASMA% (mean±SEM) Pineal gland / RTISSUE/PLASMA% (mean±SEM) Pituitary gland / RTISSUE/PLASMA% (mean±SEM) Pons / RTISSUE/PLASMA% (mean±SEM) Supernatant / RTISSUE/PLASMA% (mean±SEM) Thalamus / RTISSUE/PLASMA% (mean ± SEM) of [^3H]pentamidine: not corrected for vascular space; for RTISSUE/PLASMA% (mean ± SEM) of [^3H]pentamidine: 30 min perfusion
[1] = 15.7 nM, 10 minutes perfusion, corrected for vascular space
[2] = 15.7 nM, 10 minutes perfusion, corrected for vascular space, listed as [^3H]pentamidine
[3] = 10 minutes perfusion, listed as Control A [^3H]pentamidine
[4] = 10 minutes perfusion, listed as Control B [^3H]pentamidine

## [^3H(G)]pentamidine
[1]
  RCORR TISSUE% caudate putamen: 4.02 (± 1.03) %
  RCORR TISSUE% cerebellum: 3.82 (± 0.64) %
  RCORR TISSUE% choroid plexus: 490.9 (± 103.1) %
  RCORR TISSUE% corpus callosum: 6.73 (± 2.65) %
  RCORR TISSUE% frontal cortex: 4.29 (± 0.93) %
  RCORR TISSUE% hippocampus: 4.37 (± 0.97) %
  RCORR TISSUE% homogenate: 4.61 (± 0.94) %
  RCORR TISSUE% hypothalamus: 5.56 (± 1.58) %
  RCORR TISSUE% occipital cortex: 4.03 (± 0.98) %
  RCORR TISSUE% pellet: 12.54 (± 1.74) %
  RCORR TISSUE% pineal gland: 284.7 (± 81.4) %
  RCORR TISSUE% pons: 7.16 (± 1.75) %
  RCORR TISSUE% supernatant: less than 2%
  RCORR TISSUE% thalamus: 4.76 (± 0.91) %
[2]
  RCORR TISSUE% pituitary gland: 182.75(± 29.6) % and 182.75(± 37.5) %
  RCORR TISSUE% supernatant: 1.99 (± 0.45) %
[3]
  RTISSUE/PLASMA% (mean±SEM) Caudate putamen: 4.08 (± 0.84) %
  RTISSUE/PLASMA% (mean±SEM) Cerebellum: 5.28 (± 0.56) %
  RTISSUE/PLASMA% (mean±SEM) Choroid plexus: 385.74 (± 24.35) %
  RTISSUE/PLASMA% (mean±SEM) Corpus callosum: 5.32 (± 1.47) %
  RTISSUE/PLASMA% (mean±SEM) Frontal cortex: 4.88 (± 1.18) %
  RTISSUE/PLASMA% (mean±SEM) Hippocampus: 3.48 (± 0.94) %
  RTISSUE/PLASMA% (mean±SEM) Homogenate: 4.03 (± 0.78) %
  RTISSUE/PLASMA% (mean±SEM) Hypothalamus: 5.96 (± 1.23) %
  RTISSUE/PLASMA% (mean±SEM) Occipital cortex: 4.56 (±0.87) %
  RTISSUE/PLASMA% (mean±SEM) Pellet: 4.11 (± 1.24) %
  RTISSUE/PLASMA% (mean±SEM) Pineal gland: 367.59 (± 39.97) %
  RTISSUE/PLASMA% (mean±SEM) Pituitary gland: 251.21 (± 66.80) %
  RTISSUE/PLASMA% (mean±SEM) Pons: 7.81 (± 0.90) %
  RTISSUE/PLASMA% (mean±SEM) Supernatant: 2.54 (± 0.39) %
  RTISSUE/PLASMA% (mean±SEM) Thalamus: 4.34 (± 0.83) %
[4]
  RTISSUE/PLASMA% (mean±SEM) Caudate putamen: 5.40 (± 1.00) %
  RTISSUE/PLASMA% (mean±SEM) Cerebellum: 6.54 (± 0.70) %
  RTISSUE/PLASMA% (mean±SEM) Choroid plexus: 535.95 (± 107.86) %
  RTISSUE/PLASMA% (mean±SEM) Corpus callosum: 9.17 (± 2.67) %
  RTISSUE/PLASMA% (mean±SEM) Frontal cortex: 6.23 (± 0.92) %
  RTISSUE/PLASMA% (mean±SEM) Hippocampus: 5.60 (± 1.43) %
  RTISSUE/PLASMA% (mean±SEM) Homogenate: 6.20 (± 0.97) %
  RTISSUE/PLASMA% (mean±SEM) Hypothalamus: 8.14 (± 1.75) %
  RTISSUE/PLASMA% (mean±SEM) Occipital cortex: 5.67 (± 0.99) %
  RTISSUE/PLASMA% (mean±SEM) Pellet: 13.19 (± 1.79) %
  RTISSUE/PLASMA% (mean±SEM) Pineal gland: 361.76 (± 79.03) %
  RTISSUE/PLASMA% (mean±SEM) Pituitary gland: 203.27(± 32.85) %
  RTISSUE/PLASMA% (mean±SEM) Pons: 10.72 (± 1.82) %
  RTISSUE/PLASMA% (mean±SEM) Supernatant: 3.00 (± 0.43) %
  RTISSUE/PLASMA% (mean±SEM) Thalamus: 5.95 (± 0.92) %
30 minutes of perfusion
  Accumulation corrected for vascular space, hippocampus: 6.9%
  Accumulation corrected for vascular space, hypothalamus: 15%
  Accumulation corrected for vascular space, pons: 10.9%
Caudate putamen, 0.01% F68 + 15.7 nM pent
  RTISSUE/PLASMA% (mean ± SEM) of [^3H]pentamidine: 6.90 (± 1.58) %
Caudate putamen, 0.1% F68 + 15.7 nM pent
  RTISSUE/PLASMA% (mean ± SEM) of [^3H]pentamidine: 10.41 (± 1.18) %
Caudate putamen, 0.5% F68 + 15.7 nM pent
  RTISSUE/PLASMA% (mean ± SEM) of [^3H]pentamidine: 13.07 (± 3.45) %
Caudate putamen, Control (15.7 nM pent)
  RTISSUE/PLASMA% (mean ± SEM) of [^3H]pentamidine: 8.65 (± 0.28) %
Cerebellum, 0.01% F68 + 15.7 nM pent
  RTISSUE/PLASMA% (mean ± SEM) of [^3H]pentamidine: 9.38 (± 2.47) %
